Measured values: paper PMC8580050, “Improvement of the antimicrobial potency, pharmacokinetic and pharmacodynamic properties of albicidin by incorporation of nitrogen atoms” (Chemical Science, 2021)
In brackets after ≈: the same amount, converted by molar mass. Read-outs that look alike come from different tables or passages of the source.

Tests used:
E. coli DSM 1116 = test: MIC determination (broth microdilution); format: cell-based, Escherichia coli
Method: (§1) 1.1.1 In vitro experiments
(§2) Determination of Minimal inhibitory concentrations (MIC)
(§3) Approved Standard M07-A9.1
(§4) CFU mL-1. […] Albicidin and […]
(§5) and serially diluted in DMSO (100%). […]
(§6) in 0.1 N HCL, respectively.
(§7) One row of each well plate served as a […]
(§8) sterility control (only MHB II-media). […]
(§9) adding 5 µL DMSO to several wells. […]
(§10) for growth inhibition by naked eye.
(§11) Microorganisms and Cell Cultures (DSMZ): […]

[1] = test system: Salmonella Kentucky (ciprofloxacin resistant clinical isolate); test: microbe, parasite or virus in culture; format: cell-based
Method: as §1, §2, §3, §4, §5, §6, §7, §8, §9, §10, §11
(§12) Dr. Werner (Robert-Koch-Institut, Wernigerode, Germany): […]

[2] = test system: K. pneumoniae (ciprofloxacin resistant clinical isolate); test: microbe, parasite or virus in culture; format: cell-based; conditions: Klebsiella pneumoniae
Method: as §1, §2, §3, §4, §5, §6, §7, §8, §9, §10, §11, §12

E. coli BW25113 = test: MIC determination (broth microdilution); format: cell-based; conditions: Escherichia coli
Method: as §1, §2, §3, §4, §5, §6, §7, §8, §9, §10, §11

B. subtilis DSM 10 = test: MIC determination (broth microdilution); format: cell-based; conditions: Bacillus subtilis, DSM10
Method: as §1, §2, §3, §4, §5, §6, §7, §8, §9, §10, §11

S. Typhimurium TA100 = test: MIC determination (broth microdilution); format: cell-based, Salmonella typhimurium; conditions: Salmonella enterica; S. Typhimurium TA100; read-out: MIC
Method: as §1, §2, §3, §4, §5, §6, §7, §8, §9, §10, §11

in vitro = conditions: plasma, pH 7.4
Method: Determination of plasma stability
Human and murine plasma aliquots (Sigma-Aldrich, Taufkirchen, Germany) were thawed and subsequently centrifuged at 3000 rpm for 10 min at 4°C. Resulting supernatant was diluted in the same volume of phosphate buffer (pH 7.4) to obtain a plasma concentration of 50% (v/v). Stock solutions of […]
concentration of 20 µM (5% DMSO). Following incubation at 37°C ice-cold methanol containing 30% […]
were centrifuged at 4000 rpm for 20 min at 4°C and 100 µL of supernatant were directly transferred to a fresh MS-vial. Samples were analyzed by LC/MS-MS experiments. Quantification of remaining compounds was performed by an external calibration curve of standard solutions in the range of […]

[3] = test system: S. aureus (ciprofloxacin susceptible clinical isolate); test: MIC, extended panel; format: cell-based; conditions: Staphylococcus aureus
Method: as §1, §2, §3, §4, §5, §6, §7, §8, §9, §10, §11, §12
(§13) for the following 11 pathogenic isolates: […]

[4] = test system: P. aeruginosa (ciprofloxacin resistant clinical isolate); test: microbe, parasite or virus in culture; format: cell-based; conditions: Pseudomonas aeruginosa
Method: as §1, §2, §3, §4, §5, §6, §7, §8, §9, §10, §11, §12, §13

[5] = test system: E. faecium (ciprofloxacin resistant clinical isolate); test: microbe, parasite or virus in culture; format: cell-based; conditions: Enterococcus faecium
Method: as §1, §2, §3, §4, §5, §6, §7, §8, §9, §10, §11, §12, §13

[6] = test system: E. faecium (ciprofloxacin susceptible clinical isolate); test: microbe, parasite or virus in culture; conditions: Enterococcus faecium
[7] = test system: fluoroquinolone-resistant (FQR) E. coli isolate; test: Murine septicaemia infection model; format: in vivo, CD-1 mice
Method: From a panel of clinical ESKAPE isolates one fluoroquinolone (FQR)-resistant E. coli strain was selected for the preparation of the infection model (Table S3 ^†). […] Bacterial payload (CFU) was measured from spleens and kidneys and compared to untreated control animals.
Pharmacokinetic calculations
1.1.3 Murine septicemia infection model
For in vivo infections study female CD-1 mice (RjOrl:SWISS, 6 weeks old) were purchased from Janvier Labs (Le Genest Saint Isle, France). The animals were allowed to acclimatize for at least seven days before the start of experiments. Group-Housing was realized in a pathogen-free, temperature- […]
and water ad libitum throughout the study. All experimental procedures were approved by and conducted in accordance to the institutional guidelines. […]
septicemia infection model. Following overnight incubation in Brain Heart infusion at 37°C, the strain was spin down at 2.500 rpm for 10 min. Immediately before use, bacteria pellet was resuspended in […]
For infection procedure, mice were briefly anesthetized with continuous inhalation of isoflurane.
100 µl of bacterial suspension were intravenously administered. At least nine animals were used for each of the following therapeutic groups:
- Untreated but infected animals: control group (PBS)
- Drug candidate, dose 1 group (6 mg kg-1);
- Drug candidate, dose 2 group (17 mg kg-1). […]
respectively. Animals were monitored for clinical signs throughout the whole study using a 4-point body condition score analyzing weight loss, respiratory distress, hampered mobility and hunched posture. Animals were euthanized after 24 hours of infection. Spleen and kidneys from each animal were removed, weighed, and homogenized in 2 mL of PBS and used for quantitative cultures on agar

M. luteus DSM1790 = test: MIC determination (broth microdilution); format: cell-based, Micrococcus luteus; conditions: Micrococcus luteus, DSM1790
Method: as §1, §2, §3, §4, §5, §6, §7, §8, §9, §10, §11

M. phlei DSM 750 = test: MIC determination (broth microdilution); format: cell-based, Mycobacterium phlei; conditions: Mycolicibacterium phlei, DSM750
Method: as §1, §2, §3, §4, §5, §6, §7, §8, §9, §10

[8] = test system: S. aureus (ciprofloxacin resistant clinical isolate); test: microbe, parasite or virus in culture; format: cell-based, Staphylococcus aureus
Method: as §1, §2, §3, §4, §5, §6, §7, §8, §9, §10, §11, §12, §13

Tolerability assessment = format: in vivo, CD-1 mice; conditions: intravenous injection, 50 mg kg^−1, mice
Method: Application volume of 5 ml kg-1 was used. Samples of K-EDTA blood were collected from each mouse […]
An individual blood cell count was performed for each sample. […]
performed with help of the grimace scale to monitor any changes in facial expression. […]
were sacrificed, and a macroscopic necropsy was performed to search for damaged organs. Data of blood cell count is given in Table S7 and reference values for measured blood cell parameters are given

[9] = test system: Salmonella Kentucky (ciprofloxacin susceptible clinical isolate); test: MIC, extended panel; format: cell-based; conditions: Salmonella enterica
Method: as §1, §2, §3, §4, §5, §6, §7, §8, §9, §10, §11, §12

[10] = test system: E. coli (ciprofloxacin susceptible clinical isolate); test: MIC, extended panel; format: cell-based; conditions: Escherichia coli
Method: as §1, §2, §3, §4, §5, §6, §7, §8, §9, §10, §11, §12

E. coli DNA gyrase = molecular target: T1, E. coli DNA gyrase (Escherichia coli, UniProt P0AES4+P0AES6); test: E. coli gyrase supercoiling inhibition assay; format: biochemical; parameters: key: ↑: for stronger inhibition; ≈: for equal inhibition; ↓: for diminished inhibition compared to albicidin 1; conditions: constant concentration of 45 nM, compared to albicidin 1
T1 construct: purchased inspiralis Limited, Norwich, UK
T1 sequence (P0AES4 whole entry, one chain of several): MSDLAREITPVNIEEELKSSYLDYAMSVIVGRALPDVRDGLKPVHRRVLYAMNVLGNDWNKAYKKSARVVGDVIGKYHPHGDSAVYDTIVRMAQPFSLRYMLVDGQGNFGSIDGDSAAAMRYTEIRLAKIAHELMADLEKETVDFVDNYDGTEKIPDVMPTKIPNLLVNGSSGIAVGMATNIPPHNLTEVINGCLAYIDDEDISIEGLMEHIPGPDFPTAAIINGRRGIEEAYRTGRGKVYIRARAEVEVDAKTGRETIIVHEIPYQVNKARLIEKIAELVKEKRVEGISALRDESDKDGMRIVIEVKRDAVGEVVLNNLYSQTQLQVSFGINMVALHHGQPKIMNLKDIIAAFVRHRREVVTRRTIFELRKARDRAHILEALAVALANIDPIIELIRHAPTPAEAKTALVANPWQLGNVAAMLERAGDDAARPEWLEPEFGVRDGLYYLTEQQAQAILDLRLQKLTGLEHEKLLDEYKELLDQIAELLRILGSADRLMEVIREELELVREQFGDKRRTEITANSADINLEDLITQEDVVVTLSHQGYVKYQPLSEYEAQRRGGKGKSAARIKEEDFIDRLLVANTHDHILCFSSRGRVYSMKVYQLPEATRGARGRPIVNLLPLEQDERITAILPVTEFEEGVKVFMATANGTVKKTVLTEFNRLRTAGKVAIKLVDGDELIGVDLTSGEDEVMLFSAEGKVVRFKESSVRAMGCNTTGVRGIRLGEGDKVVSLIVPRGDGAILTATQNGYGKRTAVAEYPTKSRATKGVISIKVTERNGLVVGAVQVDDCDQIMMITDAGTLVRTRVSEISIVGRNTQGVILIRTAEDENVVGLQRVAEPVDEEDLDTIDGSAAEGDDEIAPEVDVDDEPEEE
Method: Escherichia coli Gyrase Supercoiling Inhibition Assay
loaded on an agarose gel.
2-15. […] Addition of DNA
All derivatives were tested at a concentration of […]

[11] = test system: E. coli knockout mutants from the KEIO collection (TolC, tsx); test: MIC on E. coli knockout mutants (KEIO collection); format: cell-based; conditions: for MIC: Escherichia coli
[12] = test system: E. coli (ciprofloxacin resistant clinical isolate); test: microbe, parasite or virus in culture; format: cell-based, Escherichia coli
Method: as §1, §2, §3, §4, §5, §6, §7, §8, §9, §10, §11, §12

[13] = test system: E. coli DSM 1116 + 50% Human Serum; test: MIC determination in presence of 50% human serum; format: cell-based; conditions: Escherichia coli, DSM1116
Description: This investigation was completed by assessment of the antibacterial activity in presence of human plasma (50%) (Table 1), since high plasma protein binding can severely impair antibacterial activity and thus efficacy.
as §1, §2, §3, §4, §5, §6, §7, §8, §9, §10, §11

[14] = test system: P. aeruginosa (ciprofloxacin susceptible clinical isolate); test: MIC, extended panel; format: cell-based, Pseudomonas aeruginosa
Method: as §1, §2, §3, §4, §5, §6, §7, §8, §9, §10, §11, §12, §13

[15] = test system: A. baumannii (ciprofloxacin resistant isolate); test: microbe, parasite or virus in culture; format: cell-based, Acinetobacter baumannii
Method: as §1, §2, §3, §4, §5, §6, §7, §8, §9, §10, §11, §12, §13

[16] = test system: K. pneumoniae (ciprofloxacin susceptible clinical isolate); test: MIC, extended panel; format: cell-based, Klebsiella pneumoniae
Method: as §1, §2, §3, §4, §5, §6, §7, §8, §9, §10, §11, §12

[17] = Pharmacokinetic study, i.v.
[18] = 50 mg kg-1 i.v., 2-compartment analysis

COc1c(NC(=O)c2ccc(NC(=O)c3ccc(NC(=O)[C@H](Cc4c[nH]nn4)NC(=O)c4ccc(NC(=O)/C(C)=C/c5ccc(O)cc5)cc4)cn3)c(OC)c2O)ccc(C(=O)O)c1O [Compound 7]
MIC for E. coli (E. coli DSM 1116; E. coli, strain not given): 16 ng/mL | MIC (E. coli DSM 1116; Escherichia coli, DSM1116): ≤ 0.016 µg/mL | activity, times higher compared to 2 ([1]; CIP-resistant Salmonella Kentucky): 8 times | MIC ([1]; Salmonella enterica): 0.016 µg/mL (≈ 0.0181 µM) | MIC [2]: 64 µg/mL (≈ 72.2 µM) | MIC (E. coli BW25113): ≤ 0.016 µg/mL | MIC (B. subtilis DSM 10): 0.063 µg/mL (≈ 0.0711 µM) | MIC (S. Typhimurium TA100): ≤ 0.016 µg/mL | half-life at 20 µM (in vitro; human): > 240 min | half-life at 20 µM (in vitro; mouse): 95 min | MIC [3]: 0.016 µg/mL (≈ 0.0181 µM) | MIC [4]: 2 µg/mL (≈ 2.26 µM) | MIC [5]: 32 µg/mL (≈ 36.1 µM) | MIC [6]: 0.25 µg/mL (≈ 0.282 µM) | CFU reduction in kidney ([7]; 17 mg kg^−1 applied twice): > 2 log units | CFU reduction in spleen ([7]; 17 mg kg^−1 applied twice): more than 3 log units | survival ([7]; 17 mg kg^−1 applied twice, lethal dose of FQR clinical isolate E. coli): all mice survived | survival after 24 h ([7]; 6 and 17 mg kg^−1 i.v. twice, lethal dose of FQR resistant E. coli): survived | reduction of bacterial counts in kidneys ([7]; both tested doses (6 and 17 mg kg^−1 i.v. twice), versus untreated control): > 3 log 10 CFU g^−1 | MIC (M. luteus DSM1790): 0.031 µg/mL (≈ 0.035 µM) | MIC (M. phlei DSM 750): 0.25 µg/mL (≈ 0.282 µM) | activity, times higher compared to 2 ([8]; CIP-resistant S. aureus): 8 times | MIC ([8]; Staphylococcus aureus): 0.063 µg/mL (≈ 0.0711 µM) | adverse effects or histopathological observations (tolerability study) (Tolerability assessment): did not show any adverse effects or histopathological observations | MIC [9]: 0.016 µg/mL (≈ 0.0181 µM) | MIC [10]: 0.016 µg/mL (≈ 0.0181 µM) | E. coli gyrase inhibition (E. coli DNA gyrase): ↑ | MIC ([11]; read-out: antimicrobial activity (MIC), TolC (efflux transporter) knockout mutation): ≤ 0.016 µg/mL | MIC ([11]; read-out: antimicrobial activity (MIC), before TolC knockout (parent strain)): 0.063 µg/mL (≈ 0.0711 µM) | increase of efficacy, factor ([11]; TolC knockout mutation): 4 | decrease in activity ([11]; knockout mutation of the tsx gene): 10 fold | activity, times higher compared to 2 ([12]; CIP-resistant E. coli): 4 times | MIC ([12]; Escherichia coli): 0.016 µg/mL (≈ 0.0181 µM) | MIC [13]: 0.5 µg/mL | activity, times higher than 2 ([14]; CIP sensitive P. aeruginosa): 4 times | MIC ([14]; Pseudomonas aeruginosa): 1 µg/mL (≈ 1.13 µM) | MIC ([15]; Acinetobacter baumannii): 0.016 µg/mL (≈ 0.0181 µM) | activity, times higher compared to 2 ([15]; CIP-resistant A. baumannii): 125 times | activity, times higher than 2 ([16]; CIP sensitive K. pneumonia): 8 times | MIC ([16]; Klebsiella pneumoniae): 8 µg/mL (≈ 9.03 µM) | T1/2 kel, mean [17, 18]: 1.4 h | T1/2 λz, mean [17, 18]: 8.3 h | plasma level as multiple of MIC for E. coli ([17]; 50 mg kg^−1 i.v., after 24 h): higher than 5 times MIC
